Test: xn = mol fraction of the nth substance listed
Conditions: Liquid, Vibrating tube method

COC(=O)c1ccccc1 [methyl benzoate] + C1CCCCC1
mass density [kg/m3]
Conditions | x1 = 0.0985 | x1 = 0.1963 | x1 = 0.2939 | x1 = 0.3942 | x1 = 0.4955 | x1 = 0.596 | x1 = 0.6975 | x1 = 0.7993 | x1 = 0.8982
318.15 K, 30000 kPa | – | – | 873.9 | 905.1 | 936.2 | 967.6 | 997.8 | 1026.6 | 1054.7
318.15 K, 35000 kPa | 815.3 | 846.3 | 877.5 | 908.6 | 939.6 | 971 | 1001 | 1029.7 | 1057.8
318.15 K, 40000 kPa | 818.8 | 849.9 | 880.9 | 912 | 942.9 | 974.2 | 1004.1 | 1032.7 | 1060.7
318.15 K, 45000 kPa | 822.2 | 853.2 | 884.3 | 915.2 | 946.1 | 977.3 | 1007.1 | 1035.7 | 1063.6
318.15 K, 50000 kPa | 825.5 | 856.5 | 887.5 | 918.4 | 949.2 | 980.3 | 1010.1 | 1038.6 | 1066.5
318.15 K, 55000 kPa | 828.7 | 859.7 | 890.6 | 921.5 | 952.3 | 983.3 | 1013 | 1041.5 | 1069.3
318.15 K, 60000 kPa | 831.6 | 862.5 | 893.4 | 924.3 | 955.1 | 986 | 1015.7 | 1044.1 | 1071.8
328.15 K, 100 kPa | 776 | 807.7 | 839.6 | 871.6 | 903.6 | 935.6 | 966.7 | 996.3 | 1025.1
328.15 K, 1000 kPa | 777 | 808.7 | 840.5 | 872.5 | 904.4 | 936.4 | 967.4 | 997 | 1025.8
328.15 K, 5000 kPa | 781.2 | 812.7 | 844.5 | 876.3 | 908.1 | 939.9 | 970.6 | 1000.2 | 1028.9
328.15 K, 10000 kPa | 786.2 | 817.6 | 849.2 | 880.4 | 912.3 | 944.1 | 974.8 | 1004 | 1032.6
328.15 K, 15000 kPa | 790.7 | 822.1 | 853.6 | 885.1 | 916.5 | 948.1 | 978.6 | 1007.7 | 1036.2
328.15 K, 20000 kPa | 795.2 | 826.5 | 857.8 | 889.2 | 920.5 | 951.9 | 982.3 | 1011.3 | 1039.7
328.15 K, 25000 kPa | 799.4 | 830.6 | 861.8 | 893.1 | 924.3 | 955.6 | 985.9 | 1014.7 | 1043
328.15 K, 30000 kPa | 803.4 | 834.5 | 865.7 | 896.9 | 928 | 959.2 | 989.4 | 1018.1 | 1046.3
328.15 K, 35000 kPa | 807.3 | 838.3 | 869.4 | 900.5 | 931.5 | 962.7 | 992.7 | 1021.4 | 1049.4
328.15 K, 40000 kPa | 811 | 842 | 873 | 904.1 | 935 | 966 | 996 | 1024.5 | 1052.5
328.15 K, 45000 kPa | 814.6 | 845.5 | 876.5 | 907.5 | 938.3 | 969.3 | 999.1 | 1027.6 | 1055.5
328.15 K, 50000 kPa | 818 | 848.9 | 879.8 | 910.8 | 941.5 | 972.5 | 1002.2 | 1030.7 | 1058.5
328.15 K, 55000 kPa | 821.3 | 852.2 | 883.1 | 914 | 944.7 | 975.6 | 1005.3 | 1033.6 | 1061.4
328.15 K, 60000 kPa | 824.3 | 855.5 | 886.1 | 916.9 | 947.6 | 978.3 | 1008 | 1036.3 | 1064.2
338.15 K, 100 kPa | 766.2 | 798 | 829.9 | 861.9 | 893.9 | 926 | 957 | 986.6 | 1015.6
338.15 K, 1000 kPa | 767.2 | 799 | 830.9 | 862.8 | 894.7 | 926.8 | 957.8 | 987.4 | 1016.3
338.15 K, 5000 kPa | 771.8 | 803.4 | 835.1 | 866.9 | 898.7 | 930.5 | 961.3 | 990.8 | 1019.6
338.15 K, 10000 kPa | 777 | 808.5 | 840 | 871.6 | 903.2 | 934.9 | 965.6 | 994.9 | 1023.5
338.15 K, 15000 kPa | 782 | 813.3 | 844.7 | 876.2 | 907.6 | 939.2 | 969.6 | 998.8 | 1027.2
338.15 K, 20000 kPa | 786.7 | 817.9 | 849.2 | 880.5 | 911.8 | 943.2 | 973.5 | 1002.5 | 1030.8
338.15 K, 25000 kPa | 791.1 | 822.3 | 853.4 | 884.6 | 915.8 | 946.9 | 977.3 | 1006.2 | 1034.4
338.15 K, 30000 kPa | 795.4 | 826.4 | 857.5 | 888.6 | 919.6 | 950.8 | 980.9 | 1009.7 | 1037.8
338.15 K, 35000 kPa | 799.4 | 830.4 | 861.4 | 892.4 | 923.4 | 954.5 | 984.4 | 1013.1 | 1040.9
338.15 K, 40000 kPa | 803.3 | 834.2 | 865.2 | 896.1 | 927 | 958 | 987.8 | 1016.4 | 1044.3
338.15 K, 45000 kPa | 807 | 837.9 | 868.8 | 899.6 | 930.4 | 961.4 | 991.1 | 1019.6 | 1047.5
338.15 K, 50000 kPa | 810.6 | 841.5 | 872.3 | 903.1 | 933.8 | 964.7 | 994.4 | 1022.8 | 1050.5
338.15 K, 55000 kPa | 814.1 | 844.9 | 875.7 | 906.4 | 937.1 | 967.9 | 997.5 | 1025.8 | 1053.6
338.15 K, 60000 kPa | 817.3 | 848.1 | 878.8 | 909.7 | 940.1 | 971.1 | 1000.4 | 1028.6 | 1056.3
348.15 K, 100 kPa | 756.3 | 788.1 | 820 | 852.1 | 884.1 | 916.3 | 947.3 | 976.9 | 1005.9
348.15 K, 1000 kPa | 757.4 | 789.2 | 820.9 | 853 | 885 | 917.1 | 948.1 | 977.7 | 1006.7
348.15 K, 5000 kPa | 762.1 | 793.8 | 825.6 | 857.4 | 889.1 | 921.1 | 951.8 | 981.3 | 1010.1
348.15 K, 10000 kPa | 767.9 | 799.3 | 830.9 | 862.4 | 894 | 925.8 | 956.3 | 985.5 | 1014.3
348.15 K, 15000 kPa | 773.1 | 804.4 | 835.8 | 867.2 | 898.6 | 930.2 | 960.6 | 989.7 | 1018.2
348.15 K, 20000 kPa | 778.1 | 809.3 | 840.5 | 871.8 | 903.1 | 934.4 | 964.7 | 993.6 | 1022
348.15 K, 25000 kPa | 782.8 | 813.9 | 845 | 876.1 | 907.3 | 938.5 | 968.7 | 997.5 | 1025.7
348.15 K, 30000 kPa | 787.2 | 818.2 | 849.3 | 880.3 | 911.3 | 942.4 | 972.5 | 1001.1 | 1029.3
348.15 K, 35000 kPa | 791.5 | 822.4 | 853.4 | 884.2 | 915.2 | 946.2 | 976.1 | 1004.7 | 1032.7
348.15 K, 40000 kPa | 795.5 | 826.4 | 857.3 | 888.1 | 918.9 | 949.9 | 979.7 | 1008.2 | 1036.1
348.15 K, 45000 kPa | 799.5 | 830.3 | 861.1 | 891.8 | 922.6 | 953.4 | 983.2 | 1011.5 | 1039.4
348.15 K, 50000 kPa | 803.2 | 834 | 864.7 | 895.4 | 926.1 | 956.9 | 986.5 | 1014.8 | 1042.5
348.15 K, 55000 kPa | 806.8 | 837.6 | 868.3 | 898.9 | 929.5 | 960.2 | 989.8 | 1018 | 1045.7
348.15 K, 60000 kPa | 810.1 | 840.9 | 871.4 | 902.1 | 932.6 | 963.3 | 992.7 | 1020.9 | 1048.5
358.15 K, 100 kPa | 746 | 778 | 809.9 | 842 | 874.1 | 906.3 | 937.3 | 967 | 996.1
358.15 K, 1000 kPa | 747.1 | 779.1 | 811 | 843.1 | 875.1 | 907.3 | 938.3 | 967.9 | 996.9
358.15 K, 5000 kPa | 752.5 | 784.2 | 815.9 | 847.7 | 879.4 | 911.4 | 942 | 971.7 | 1000.6
358.15 K, 10000 kPa | 757.8 | 790 | 821.5 | 853.1 | 884.7 | 916.4 | 947 | 976.2 | 1004.9
358.15 K, 15000 kPa | 764.1 | 795.5 | 826.7 | 858.2 | 889.6 | 921.1 | 951.4 | 980.6 | 1009
358.15 K, 20000 kPa | 769.4 | 800.6 | 831.8 | 863 | 894.2 | 925.6 | 955.8 | 984.7 | 1013
358.15 K, 25000 kPa | 774.3 | 805.5 | 836.5 | 867.6 | 898.6 | 929.9 | 960 | 988.7 | 1016.9
358.15 K, 30000 kPa | 779 | 810 | 841 | 871.8 | 902.9 | 934 | 963.9 | 992.6 | 1020.6
358.15 K, 35000 kPa | 783.5 | 814.4 | 845.3 | 876.1 | 907 | 938 | 967.8 | 996.3 | 1024.2
358.15 K, 40000 kPa | 787.7 | 818.6 | 849.4 | 880.1 | 910.9 | 941.8 | 971.5 | 999.9 | 1027.8
358.15 K, 45000 kPa | 791.8 | 822.6 | 853.3 | 884 | 914.7 | 945.5 | 975.1 | 1003.4 | 1031.2
358.15 K, 50000 kPa | 795.7 | 826.5 | 857.1 | 887.8 | 918.3 | 949 | 978.6 | 1006.8 | 1034.5
358.15 K, 55000 kPa | 799.5 | 830.2 | 860.8 | 891.4 | 921.9 | 952.5 | 982 | 1010.1 | 1037.8
358.15 K, 60000 kPa | 802.9 | 832.8 | 864.2 | 894.6 | 925.1 | 955.7 | 985 | 1013.1 | 1040.9

Source: the NIST ThermoML archive (doi:10.1016/j.jct.2011.02.008)
